The term IC50 denotes the midpoint of a concentration-inhibition curve. Broadly, the Ki is a dissociation constant, usually derived from enzyme kinetics or from competition with a known ligand. Usually inhibition stands for the percentage by which the read-out fell short of the control.

From ChEMBL document CHEMBL3868641, “Discovery, characterization and biological evaluation of a novel (R)-4,4-difluoropiperidine scaffold as dopamine receptor 4 (D4R) antagonists” (Bioorg Med Chem Lett, 2016) come the findings set out here.

Assay [1] in a line: Displacement of [3H]Spiperone from recombinant human Dopamine D4.4 receptor expressed in CHO-K1 cell membranes after 120 mins. On the technique in general: Loss of bound radioactivity is the signal in a displacement assay; it reports binding, not function.
Assay [2] can be described thus: Displacement of [3H]Spiperone from recombinant human Dopamine D4.4 receptor expressed in CHO-K1 cell membranes at 10 uM after 120 mins relative to control.
The target in assay [3] is D(3) dopamine receptor (Homo sapiens) (UniProt P35462). Briefly: Displacement of [3H]Spiperone from recombinant human Dopamine D3 receptor expressed in CHO cell membranes at 10 uM after 120 mins relative to control.
Assay [4] has as its target D(2) dopamine receptor (Homo sapiens) (UniProt P14416). Briefly: Displacement of [3H]Spiperone from recombinant human Dopamine D2L receptor expressed in CHO cell membranes at 10 uM after 120 mins relative to control.
Assay [5] has as its target D(1B) dopamine receptor (Homo sapiens) (UniProt P21918). Briefly: Displacement of [3H]SCH-23390 from recombinant human Dopamine D5 receptor expressed in CHO cell membranes at 10 uM after 120 mins relative to control.
Assay [6] addresses D(1A) dopamine receptor (Homo sapiens) (UniProt P21728). Briefly: Displacement of [3H]SCH-23390 from recombinant human Dopamine D1 receptor expressed in CHO cell membranes at 10 uM after 120 mins relative to control.
The target in assay [7] is D(2) dopamine receptor (Homo sapiens) (UniProt P14416). The assay can be described thus: Displacement of [3H]Spiperone from recombinant human Dopamine D2S receptor expressed in CHO cell membranes at 10 uM after 120 mins relative to control.
Chain of D(2) dopamine receptor (Homo sapiens) (P14416 whole entry): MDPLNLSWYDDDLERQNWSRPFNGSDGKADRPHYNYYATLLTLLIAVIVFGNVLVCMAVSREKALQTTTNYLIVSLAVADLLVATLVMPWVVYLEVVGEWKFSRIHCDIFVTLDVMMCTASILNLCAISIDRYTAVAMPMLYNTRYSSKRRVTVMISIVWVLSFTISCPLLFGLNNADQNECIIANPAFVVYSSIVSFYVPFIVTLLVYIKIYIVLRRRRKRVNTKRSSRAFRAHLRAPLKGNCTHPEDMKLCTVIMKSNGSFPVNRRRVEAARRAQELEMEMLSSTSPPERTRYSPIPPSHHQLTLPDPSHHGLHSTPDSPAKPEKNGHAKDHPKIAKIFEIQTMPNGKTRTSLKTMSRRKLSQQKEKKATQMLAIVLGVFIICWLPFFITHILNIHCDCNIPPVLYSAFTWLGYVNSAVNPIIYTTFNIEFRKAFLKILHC

Chain of D(1A) dopamine receptor (Homo sapiens) (P21728 whole entry): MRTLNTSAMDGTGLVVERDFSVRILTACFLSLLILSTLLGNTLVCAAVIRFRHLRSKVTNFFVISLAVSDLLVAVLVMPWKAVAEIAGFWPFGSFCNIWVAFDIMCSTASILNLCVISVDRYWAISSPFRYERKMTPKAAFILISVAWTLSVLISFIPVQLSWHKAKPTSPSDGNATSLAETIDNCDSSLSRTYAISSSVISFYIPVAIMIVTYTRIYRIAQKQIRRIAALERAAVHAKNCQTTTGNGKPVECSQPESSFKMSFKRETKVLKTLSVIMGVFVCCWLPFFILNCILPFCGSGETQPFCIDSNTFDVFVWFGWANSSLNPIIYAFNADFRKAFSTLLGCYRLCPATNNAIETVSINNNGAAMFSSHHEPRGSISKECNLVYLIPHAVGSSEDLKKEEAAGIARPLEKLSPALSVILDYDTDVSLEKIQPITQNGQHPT
Chain of D(3) dopamine receptor (Homo sapiens) (P35462 whole entry): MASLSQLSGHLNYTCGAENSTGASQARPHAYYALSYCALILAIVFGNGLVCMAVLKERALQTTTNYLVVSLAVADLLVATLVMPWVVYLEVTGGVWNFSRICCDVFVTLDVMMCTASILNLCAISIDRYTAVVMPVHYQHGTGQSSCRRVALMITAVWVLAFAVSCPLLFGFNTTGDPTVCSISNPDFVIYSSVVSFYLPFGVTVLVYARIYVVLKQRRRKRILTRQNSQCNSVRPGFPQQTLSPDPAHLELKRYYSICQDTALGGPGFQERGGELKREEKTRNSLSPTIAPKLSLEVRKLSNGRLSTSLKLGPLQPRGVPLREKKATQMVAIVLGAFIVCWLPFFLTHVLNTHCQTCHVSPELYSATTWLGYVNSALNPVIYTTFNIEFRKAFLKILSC
Chain of D(1B) dopamine receptor (Homo sapiens) (P21918 whole entry): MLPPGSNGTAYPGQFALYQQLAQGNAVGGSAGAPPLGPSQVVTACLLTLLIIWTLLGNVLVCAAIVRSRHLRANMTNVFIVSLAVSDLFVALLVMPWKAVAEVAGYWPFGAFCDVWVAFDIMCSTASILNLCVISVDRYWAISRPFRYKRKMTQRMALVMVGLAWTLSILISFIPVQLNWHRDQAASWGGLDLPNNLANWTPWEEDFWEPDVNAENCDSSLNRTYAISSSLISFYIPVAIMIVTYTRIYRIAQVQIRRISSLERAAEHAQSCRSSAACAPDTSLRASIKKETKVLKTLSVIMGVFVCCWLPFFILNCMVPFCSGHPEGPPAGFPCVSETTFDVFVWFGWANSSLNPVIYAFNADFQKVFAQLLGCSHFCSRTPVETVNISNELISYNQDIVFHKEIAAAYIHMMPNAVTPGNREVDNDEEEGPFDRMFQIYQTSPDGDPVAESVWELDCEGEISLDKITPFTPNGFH

On to `Clc1ccc(CN2CCO[C@H](CCc3ccccc3)C2)cc1`, for which, in assay [1], the concentration for half-maximal inhibition (IC50) worked out at 0.13 µM and the inhibitory constant (Ki) was found to be 0.036 µM.

As for `COc1ccc(CN2CCO[C@H](COc3ccccc3)C2)cc1F`, in assay [1], the IC50 amounted to 0.056 µM and the Ki amounted to 0.0143 µM.

Turning to `Fc1ccccc1CC[C@H]1CN(Cc2c[nH]c3cc(Cl)ccc23)CCC1(F)F`, the inhibition in assay [2] was found to be 59%. Moreover, in assay [1], the 50% inhibitory concentration (IC50) stood at 5.99 µM and the inhibition constant (Ki) was found to be 1.66 µM.

Take `Fc1ccc(CC[C@H]2CN(Cc3c[nH]c4cc(Cl)ccc34)CCC2(F)F)cc1`: the inhibition in assay [2] was found to be 73%. Moreover, in assay [1], the concentration for half-maximal inhibition (IC50) was 3.2 µM and the inhibition constant (Ki) was found to be 0.89 µM.

`Cc1ccc(CN2CCC(F)(F)[C@@H](CCc3ccccc3)C2)cc1C`: the IC50 in assay [1] is greater than 10 µM.

As to `COc1ccc2cc(CN3CCC(F)(F)[C@@H](CCc4ccccc4)C3)c(OC)nc2c1`, the inhibition in assay [2] is 25%.

Turning to `FC1(F)CCN(Cc2c[nH]c3cc(Cl)ccc23)C[C@@H]1CCc1ccccc1`, the inhibition in assay [2] was found to be 58%.

Regarding `Fc1ccc2c(CN3CCC(F)(F)[C@@H](CCc4ccccc4)C3)c[nH]c2c1`, the inhibition in assay [2] is 64%.

For `COc1cccc(CCC2CN(Cc3c[nH]c4cc(F)ccc34)CCC2(F)F)c1` (racemic), the inhibition in assay [2] was determined as 88%. For the same compound, in assay [1], the IC50 was 1.54 µM and the inhibitory constant (Ki) was 0.43 µM.

In the case of `COc1ccc2c(CN3CCC(F)(F)C(CCc4cccc(F)c4)C3)c[nH]c2c1` (racemic), the inhibition in assay [2] is 93%. Moreover, in assay [1], the IC50 was determined as 0.045 µM and the inhibition constant (Ki) is 0.0125 µM.

On to `FC1(F)CCN(Cc2ccc3ncccc3c2)CC1CCc1ccccc1` (racemic), for which the inhibition in assay [2] worked out at 87%. For the same compound, in assay [1], the IC50 amounted to 1.36 µM and the Ki was determined as 0.38 µM.

As to `COc1ccc2c(CN3CCC(F)(F)C(CCc4ccccc4F)C3)c[nH]c2c1` (racemic), the inhibition in assay [2] was 95%; in assay [3], 80%; in assay [4], less than 50%; in assay [5], less than 50%; in assay [6], less than 50%; in assay [7] it was 66%. The half-maximal inhibitory concentration (IC50) in assay [1] came to 0.021 µM. Moreover, the inhibitory constant (Ki) in assay [1] is 0.0059 µM.

As for `COc1ccccc1CCC1CN(Cc2c[nH]c3cc(Cl)ccc23)CCC1(F)F` (racemic), the inhibition in assay [2] was 94%. Further, in assay [1], the IC50 came to 0.23 µM and the Ki was determined as 0.064 µM.

On to `COc1cccc(CCC2CN(Cc3c[nH]c4cc(OC)ccc34)CCC2(F)F)c1` (racemic), for which, in assay [2], the inhibition was found to be 89%. In assay [1], the IC50 turned out to be 0.55 µM and the inhibitory constant (Ki) was 0.15 µM.

On to `COc1ccc2c(CN3CCC(F)(F)C(CCc4ccc(F)cc4)C3)c[nH]c2c1` (racemic), for which, in assay [2], the inhibition came to 96%. In addition, in assay [1], the 50% inhibitory concentration (IC50) worked out at 0.037 µM and the Ki was found to be 0.0103 µM.

For `COc1ccc(CCC2CN(Cc3c[nH]c4cc(Cl)ccc34)CCC2(F)F)cc1` (racemic), the inhibition in assay [2] worked out at 88%. Further, in assay [1], the concentration for half-maximal inhibition (IC50) turned out to be 0.64 µM and the Ki is 0.18 µM.

Turning to `Fc1cccc(CCC2CN(Cc3c[nH]c4cc(Cl)ccc34)CCC2(F)F)c1` (racemic), the inhibition in assay [2] came to 94%. In addition, in assay [1], the 50% inhibitory concentration (IC50) was 0.16 µM and the inhibition constant (Ki) was found to be 0.044 µM.

Take `Fc1ccc(CCC2CN(Cc3c[nH]c4cc(F)ccc34)CCC2(F)F)cc1` (racemic): the inhibition in assay [2] stood at 94%. Besides, in assay [1], the IC50 worked out at 0.025 µM and the inhibitory constant (Ki) is 0.007 µM.

On to `COc1ccc2c(CN3CCC(F)(F)C(CCc4ccccc4OC)C3)c[nH]c2c1` (racemic), for which the inhibition in assay [2] was found to be 76%. In assay [1], the IC50 turned out to be 0.37 µM and the inhibition constant Ki was determined as 0.1 µM.

`Fc1ccccc1CCC1CN(Cc2ccc(Cl)cc2)CCC1(F)F` (racemic): in assay [2], the inhibition came to 92%. In addition, in assay [1], the IC50 was 0.098 µM and the inhibition constant (Ki) worked out at 0.027 µM.

With `CSc1ccc(CN2CCC(F)(F)C(CCc3ccccc3)C2)cc1` (racemic), the inhibition in assay [2] is 93%. Besides, in assay [1], the IC50 is 0.51 µM and the Ki amounted to 0.14 µM.

For `FC1(F)CCN(Cc2ccc3ccccc3c2)CC1CCc1ccccc1` (racemic), the inhibition in assay [2] was 80%. Also, in assay [1], the half-maximal inhibitory concentration (IC50) was 0.79 µM and the Ki worked out at 0.22 µM.

As for `Fc1ccc2c(CN3CCC(F)(F)C(CCc4ccccc4F)C3)c[nH]c2c1` (racemic), the inhibition in assay [2] came to 95%. Besides, in assay [1], the 50% inhibitory concentration (IC50) stood at 0.031 µM and the Ki stood at 0.0086 µM.

As for `COc1ccc(CCC2CN(Cc3c[nH]c4cc(OC)ccc34)CCC2(F)F)cc1` (racemic), the inhibition in assay [2] was 93%. In addition, in assay [1], the IC50 came to 0.43 µM and the Ki came to 0.12 µM.

As for `FC1(F)CCN(Cc2ccc(Cl)cc2)CC1CCc1ccccc1` (racemic), the inhibition in assay [2] was 80%. For the same compound, in assay [1], the IC50 is 0.76 µM and the Ki came out at 0.21 µM.

Take `COc1ccc(CCC2CN(Cc3c[nH]c4cc(F)ccc34)CCC2(F)F)cc1` (racemic): the inhibition in assay [2] worked out at 91%. For the same compound, in assay [1], the 50% inhibitory concentration (IC50) came out at 0.48 µM and the inhibitory constant (Ki) worked out at 0.13 µM.

Turning to `COc1ccc(CN2CCC(F)(F)C(CCc3ccccc3)C2)cc1F` (racemic), the inhibition in assay [2] is 88%. Also, in assay [1], the concentration for half-maximal inhibition (IC50) stood at 0.11 µM and the Ki was found to be 0.031 µM.

For the compound `Fc1ccc(CCC2CN(Cc3ccc(Cl)cc3)CCC2(F)F)cc1` (racemic), the inhibition in assay [2] worked out at 95%. In assay [1], the IC50 was found to be 0.065 µM and the Ki worked out at 0.0179 µM.

With `COc1ccc(CN2CCC(F)(F)C(CCc3ccccc3)C2)cc1` (racemic), the inhibition in assay [2] was found to be 87%. In assay [1], the half-maximal inhibitory concentration (IC50) was found to be 0.43 µM and the inhibition constant (Ki) was 0.12 µM.

For `Fc1ccccc1CCC1CN(Cc2ncn3ccccc23)CCC1(F)F` (racemic), in assay [2], the inhibition worked out at 92%. Also, in assay [1], the IC50 amounted to 0.15 µM and the inhibition constant (Ki) came to 0.042 µM.

With `COc1ccccc1CCC1CN(Cc2c[nH]c3cc(F)ccc23)CCC1(F)F` (racemic), the inhibition in assay [2] is 94%. In addition, in assay [1], the half-inhibitory concentration (IC50) amounted to 0.17 µM and the Ki turned out to be 0.048 µM.

As for `FC1(F)CCN(Cc2cccc3cc[nH]c23)CC1CCc1ccccc1` (racemic), the inhibition in assay [2] turned out to be 88%. For the same compound, in assay [1], the IC50 is 0.3 µM and the Ki was 0.084 µM.

On to `COc1ccccc1CCC1CN(Cc2ccc(Cl)cc2)CCC1(F)F` (racemic), for which, in assay [2], the inhibition is 75%. In assay [1], the IC50 came to 0.23 µM and the Ki was found to be 0.063 µM.

For the compound `CCOc1ccccc1CN1CCC(F)(F)C(CCc2ccccc2)C1` (racemic), the inhibition in assay [2] is 49%.

As to `COc1ccc(CN2CCC(F)(F)C(CCc3ccccc3)C2)cc1OC` (racemic), the inhibition in assay [2] came out at 77%.

On to `COc1cccc(CCC2CN(Cc3ccc(Cl)cc3)CCC2(F)F)c1` (racemic), for which, in assay [2], the inhibition was found to be 67%.

On to `COc1cccc(CCC2CN(Cc3ncn4ccccc34)CCC2(F)F)c1` (racemic), for which, in assay [2], the inhibition is 66%.

As to `COc1cccc2ccc(CN3CCC(F)(F)C(CCc4ccccc4)C3)nc12` (racemic), the inhibition in assay [2] worked out at 54%.

Regarding `COc1ccccc1CCC1CN(Cc2c[nH]c3cccc(F)c23)CCC1(F)F` (racemic), the inhibition in assay [2] came out at 3%.

`FC(F)(F)Oc1ccc(CN2CCC(F)(F)C(CCc3ccccc3)C2)cc1` (racemic): the inhibition in assay [2] came to 70%.

`FC(F)(F)c1cc(CN2CCC(F)(F)C(CCc3ccccc3)C2)cc(C(F)(F)F)c1` (racemic): the inhibition in assay [2] was 0%.

Take `FC(F)(F)c1ccc(CN2CCC(F)(F)C(CCc3ccccc3)C2)cc1` (racemic): the inhibition in assay [2] was determined as 79%.

`FC(F)(F)c1cccc(CN2CCC(F)(F)C(CCc3ccccc3)C2)c1` (racemic): the inhibition in assay [2] is 48%.

Take `FC1(F)CCN(Cc2cc3ccccc3s2)CC1CCc1ccccc1` (racemic): the inhibition in assay [2] came out at 51%.

Take `FC1(F)CCN(Cc2ccc3[nH]ncc3c2)CC1CCc1ccccc1` (racemic): the inhibition in assay [2] was 68%.

With `FC1(F)CCN(Cc2ccc3ccccc3n2)CC1CCc1ccccc1` (racemic), the inhibition in assay [2] stood at 70%.

Turning to `FC1(F)CCN(Cc2cccc(Cl)c2)CC1CCc1ccccc1` (racemic), the inhibition in assay [2] worked out at 55%.

With `FC1(F)CCN(Cc2cccc3c2OCO3)CC1CCc1ccccc1` (racemic), the inhibition in assay [2] worked out at 18%.

For `FC1(F)CCN(Cc2nc3cc(Cl)ccc3cc2Cl)CC1CCc1ccccc1` (racemic), the inhibition in assay [2] was found to be 16%.

Take `Fc1ccc(CN2CCC(F)(F)C(CCc3ccccc3)C2)c(Cl)c1` (racemic): in assay [2], the inhibition came out at 6%.

With `Fc1ccc2nc(CN3CCC(F)(F)C(CCc4ccccc4)C3)ccc2c1` (racemic), the inhibition in assay [2] was 66%.

For the compound `Fc1cccc(CCC2CN(Cc3c[nH]c4cccc(F)c34)CCC2(F)F)c1` (racemic), in assay [2], the inhibition stood at 59%.

As to `Fc1cccc(CCC2CN(Cc3ncn4ccccc34)CCC2(F)F)c1` (racemic), the inhibition in assay [2] stood at 78%.

With `Fc1cccc(Cl)c1CN1CCC(F)(F)C(CCc2ccccc2)C1` (racemic), in assay [2], the inhibition came out at 10%.

On to `Fc1cccc2ccc(CN3CCC(F)(F)C(CCc4ccccc4)C3)nc12` (racemic), for which the inhibition in assay [2] turned out to be 69%.

As to `Fc1ccccc1CCC1CN(Cc2c[nH]c3cccc(F)c23)CCC1(F)F` (racemic), in assay [2], the inhibition is 62%.

Regarding `N#Cc1cc(CN2CCC(F)(F)C(CCc3ccccc3)C2)ccc1F` (racemic), the inhibition in assay [2] is 66%.

Consider `N#Cc1ccccc1CN1CCC(F)(F)C(CCc2ccccc2)C1` (racemic), for which, in assay [2], the inhibition worked out at 10%.
